{"source": "patent US8575364B2", "about": "“Modulators of serotonin receptor” (Janssen Pharmaceutica NV, priority 2008, dated 2013)", "key": {"[1]": {"target": "r5-HT7 receptor (Rattus norvegicus (Rat), UniProt P32305)", "sequence (P32305 1-435)": "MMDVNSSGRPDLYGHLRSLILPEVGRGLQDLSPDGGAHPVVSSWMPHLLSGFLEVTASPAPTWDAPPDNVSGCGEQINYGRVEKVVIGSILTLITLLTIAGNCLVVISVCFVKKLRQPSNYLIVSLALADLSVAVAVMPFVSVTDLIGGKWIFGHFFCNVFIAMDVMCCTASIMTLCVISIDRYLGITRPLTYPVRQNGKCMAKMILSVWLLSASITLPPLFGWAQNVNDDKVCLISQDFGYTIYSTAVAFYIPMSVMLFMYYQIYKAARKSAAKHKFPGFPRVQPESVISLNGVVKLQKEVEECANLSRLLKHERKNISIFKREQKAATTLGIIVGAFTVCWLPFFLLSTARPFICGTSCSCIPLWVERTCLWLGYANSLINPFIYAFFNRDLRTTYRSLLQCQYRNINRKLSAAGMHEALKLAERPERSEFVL", "assay": "HitHunter cAMP assay, agonistic testing", "type": "cell-based", "details": "HEK-293 cells stably transfected with r5-HT7 receptor", "method": "(§1) Receptor binding was performed using membrane fractions prepared from the HEK-293 cell line recombinantly expressing rat 5-HT7 receptors (NCBI accession NM_022938). Compound affinity for the rat 5-HT7 receptor subtype was evaluated by competitive radioligand binding assays using 5-carboxamido[^3H]tryptamine ([^3H]5-CT) (Amersham Biosciences, cat. 90000403) detection. HitHunter™ cAMP assays are in-vitro based competitive immunoassays. The assay was performed on the HEK-293 cell line stably transfected with r5-HT7 receptor. Cells were pre-incubated with test compounds for 10 minutes. For agonistic testing, the concentration of test compound that produced a half-maximal response is represented by the EC50 value. Compounds were assayed in their free form or as salts, as indicated in the Examples section above."}, "[2]": {"target": "rat 5-HT7 receptors (Rattus norvegicus (Rat), UniProt P32305)", "sequence (P32305 1-435)": "as above", "assay": "r5-HT7 competitive radioligand binding assay ([3H]5-CT)", "details": "membrane fractions of HEK-293 cells recombinantly expressing rat 5-HT7", "method": "as §1, with “Compound” for “Receptor binding was performed using membrane fractions prepared from the HEK-293 cell line recombinantly expressing rat 5-HT7 receptors (NCBI accession NM_022938). Compound”, “The assay was performed on the HEK-293 cell line stably transfected with r5-HT7 receptor.” left out"}}, "note": "Counter-ions that a name gives are not always drawn.", "data": [{"smiles": "COc1ccc(-c2ccccc2C(F)(F)F)cc1OC1CNC1", "note": "[Example 1, 3-(4-Methoxy-2′-trifluoromethyl-biphenyl-3-yloxy)-azetidine]", "values": [{"measurement": "EC50", "setting": "[1]", "value": 200, "unit": "nM"}, {"measurement": "Ki", "setting": "[2]", "value": 3.79, "unit": "nM"}]}, {"smiles": "COc1ccc(-c2cccc(C)c2C)cc1OC1CNC1", "note": "[Example 4, 3-(4-Methoxy-2′,3′-dimethyl-biphenyl-3-yloxy)-azetidine]", "values": [{"measurement": "EC50", "setting": "[1]", "value": 631, "unit": "nM"}, {"measurement": "Ki", "setting": "[2]", "value": 11, "unit": "nM"}]}, {"smiles": "COc1ccc(-c2cccc(F)c2C)cc1OC1CNC1", "note": "[Example 5, 3-(3′-Fluoro-4-methoxy-2′-methyl-biphenyl-3-yloxy)-azetidine]", "values": [{"measurement": "EC50", "setting": "[1]", "value": 1580, "unit": "nM"}, {"measurement": "Ki", "setting": "[2]", "value": 19, "unit": "nM"}]}, {"smiles": "COc1ccc(-c2ccccc2C)cc1OC1CNC1", "note": "[Example 8, 3-(4-Methoxy-2′-methyl-biphenyl-3-yloxy)-azetidine trifluoroacetate]", "values": [{"measurement": "EC50", "setting": "[1]", "value": 794, "unit": "nM"}, {"measurement": "Ki", "setting": "[2]", "value": 13.5, "unit": "nM"}]}, {"smiles": "COc1ccc(-c2ccccc2Cl)cc1OC1CNC1", "note": "[Example 17, 3-(2′-Chloro-4-methoxy-biphenyl-3-yloxy)-azetidine]", "values": [{"measurement": "EC50", "setting": "[1]", "value": 794, "unit": "nM"}, {"measurement": "Ki", "setting": "[2]", "value": 4.42, "unit": "nM"}]}, {"smiles": "Cc1cc(-c2ccc(Cl)cc2OC2CNC2)ccc1F", "note": "[Example 41, 3-(4-Chloro-4′-fluoro-3′-methyl-biphenyl-2-yloxy)-azetidine]", "values": [{"measurement": "Ki", "setting": "[2]", "value": 470, "unit": "nM"}]}, {"smiles": "Cc1ccc(-c2ccc(Cl)cc2OC2CNC2)cc1C", "note": "[Example 42, 3-(4-Chloro-3′,4′-dimethyl-biphenyl-2-yloxy)-azetidine]", "values": [{"measurement": "Ki", "setting": "[2]", "value": 210, "unit": "nM"}]}, {"smiles": "Clc1ccc(-c2ccccc2C2CCNC2)cc1", "note": "(stereo not drawn) [Example 56, 3-(4′-Chloro-biphenyl-2-yl)-pyrrolidine]", "values": [{"measurement": "Ki", "setting": "[2]", "value": 180, "unit": "nM"}]}, {"smiles": "COc1ccc(-c2ccccc2)cc1OC1CCNCC1", "note": "[Example 68, 4-(4-Methoxy-biphenyl-3-yloxy)-piperidine]", "values": [{"measurement": "Ki", "setting": "[2]", "value": 1480, "unit": "nM"}]}, {"smiles": "COc1ccc(-c2ccccc2C(F)(F)F)cc1OC1CCNCC1", "note": "[Example 69, 4-(4-Methoxy-2′-trifluoromethyl-biphenyl-3-yloxy)-piperidine]", "values": [{"measurement": "Ki", "setting": "[2]", "value": 59, "unit": "nM"}]}]}
